Data taken from publication PMC4511751, “Rapid Expansion of Phenylthiocarbamide Non-Tasters among Japanese Macaques” (PLoS ONE, 2015).

How the values were obtained:
MmTAS2R38WT-a = target: T1, MmTAS2R38WT-a (Macaca mulatta, UniProt F1T2U6); experiment: calcium imaging, fluo-4, FlexStation, HEK293T with G-alpha16gust44; type: cell-based
T1 construct: gene tas2r38; full-length TAS2R38, N-terminal first 45 residues of rat ssr3 and C-terminal last 8 residues of bovine rhodopsin as tags, pEAK10, HEK293T, co-expressed with chimeric G-alpha16gust44
T1 sequence (F1T2U6 1-333): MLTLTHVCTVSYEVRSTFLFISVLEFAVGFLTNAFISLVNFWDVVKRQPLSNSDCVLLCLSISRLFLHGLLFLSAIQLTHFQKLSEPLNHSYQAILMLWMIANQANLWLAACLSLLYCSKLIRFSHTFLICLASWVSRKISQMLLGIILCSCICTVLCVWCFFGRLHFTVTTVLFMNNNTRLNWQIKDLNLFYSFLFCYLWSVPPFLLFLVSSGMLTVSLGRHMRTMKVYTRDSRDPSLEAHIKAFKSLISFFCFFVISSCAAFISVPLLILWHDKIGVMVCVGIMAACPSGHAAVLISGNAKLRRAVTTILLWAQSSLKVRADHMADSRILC

MfTAS2R38TR-K = target: T2, MfTAS2R38TR-K (Macaca fuscata, UniProt F1T2T8); conditions: truncated allele Mf-K; pH 7.4
T2 construct: gene tas2r38
T2 sequence (F1T2T8 1-237): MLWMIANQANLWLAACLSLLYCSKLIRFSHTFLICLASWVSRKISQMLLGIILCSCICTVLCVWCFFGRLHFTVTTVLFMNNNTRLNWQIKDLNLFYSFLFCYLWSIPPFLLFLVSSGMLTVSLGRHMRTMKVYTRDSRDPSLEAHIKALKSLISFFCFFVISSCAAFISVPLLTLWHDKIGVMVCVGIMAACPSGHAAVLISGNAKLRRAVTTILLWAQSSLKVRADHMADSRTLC

With NC(=S)Nc1ccccc1 [phenylthiocarbamide] the EC50 (MmTAS2R38WT-a) was 560 nM and the “calcium imaging, fluo-4, FlexStation, HEK293T with G-alpha16gust44” value (MfTAS2R38TR-K) was “failed to respond to PTC”.
